2 compounds from ChEMBL document CHEMBL1135040, “[(3)H]-M-MPEP, a potent, subtype-selective radioligand for the metabotropic glutamate receptor subtype 5” (Bioorg Med Chem Lett, 2002) can be followed below.

The structures appear in SMILES notation.

For experiment [1], the target named is T1, Metabotropic glutamate receptor 5 (Homo sapiens, UniProt P41594). Put plainly: Tested in vitro binding affinity for displacement of [3H]M-MPEP from membrane of L(-tk) cells expressing the Metabotropic glutamate receptor 5, activity expressed as IC50. (In general: In a radioligand displacement assay an active substance lowers the binding of a labelled ligand.)
T1 sequence (P41594 whole entry): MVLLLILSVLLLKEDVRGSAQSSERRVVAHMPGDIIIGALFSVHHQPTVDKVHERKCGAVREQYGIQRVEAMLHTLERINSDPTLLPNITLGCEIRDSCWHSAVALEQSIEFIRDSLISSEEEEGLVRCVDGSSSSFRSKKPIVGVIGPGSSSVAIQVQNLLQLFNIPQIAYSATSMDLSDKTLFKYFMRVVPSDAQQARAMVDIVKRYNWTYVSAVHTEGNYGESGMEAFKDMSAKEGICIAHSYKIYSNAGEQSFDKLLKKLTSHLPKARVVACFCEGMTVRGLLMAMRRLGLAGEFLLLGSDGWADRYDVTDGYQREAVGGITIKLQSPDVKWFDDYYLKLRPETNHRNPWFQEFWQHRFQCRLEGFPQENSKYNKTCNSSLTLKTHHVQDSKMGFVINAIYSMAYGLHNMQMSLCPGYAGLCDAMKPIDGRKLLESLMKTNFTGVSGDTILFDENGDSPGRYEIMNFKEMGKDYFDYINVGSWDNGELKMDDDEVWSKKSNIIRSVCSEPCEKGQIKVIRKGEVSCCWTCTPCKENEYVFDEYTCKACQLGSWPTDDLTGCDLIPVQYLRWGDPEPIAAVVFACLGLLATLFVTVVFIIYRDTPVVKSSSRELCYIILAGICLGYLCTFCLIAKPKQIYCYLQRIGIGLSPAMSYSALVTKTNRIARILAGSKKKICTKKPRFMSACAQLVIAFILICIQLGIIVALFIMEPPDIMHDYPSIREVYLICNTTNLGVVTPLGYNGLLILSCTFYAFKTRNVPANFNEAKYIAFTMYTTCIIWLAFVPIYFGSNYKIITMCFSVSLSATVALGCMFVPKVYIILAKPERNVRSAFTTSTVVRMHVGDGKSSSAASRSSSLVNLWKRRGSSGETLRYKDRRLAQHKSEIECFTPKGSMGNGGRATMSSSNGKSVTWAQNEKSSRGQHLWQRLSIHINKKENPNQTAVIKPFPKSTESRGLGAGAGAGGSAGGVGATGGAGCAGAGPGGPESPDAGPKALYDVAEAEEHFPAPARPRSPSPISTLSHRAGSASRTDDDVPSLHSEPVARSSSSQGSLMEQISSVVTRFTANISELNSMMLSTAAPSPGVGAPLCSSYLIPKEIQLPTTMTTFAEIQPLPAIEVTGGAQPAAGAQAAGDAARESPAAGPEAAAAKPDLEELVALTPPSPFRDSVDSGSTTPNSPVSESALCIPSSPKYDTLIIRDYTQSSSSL

For experiment [2], the target named is T1, Metabotropic glutamate receptor 5. Nature of the experiment: In vitro for inhibitory activity of compound against recombinant Metabotropic glutamate receptor 5 evaluated as inhibition of quisqualate-stimulated phosphoinositide (PI) hydrolysis. Type of experiment: functional.

On to `[3H]C([3H])([3H])OCc1cccc(C#Cc2cccc(C)n2)c1`, for which the results for the IC50 in experiment [1] and in experiment [2] were 3.6 nM and 10 nM, respectively.

`Cc1cccc(/C=C/c2ccccc2)n1`: the concentration for half-maximal inhibition (IC50) (usually the point on the concentration scale where inhibition reaches its midpoint) in experiment [1] worked out at 1100 nM; in experiment [2], 3000 nM.
